Source: paper PMC6923765, “Structural Design, Synthesis, and Preliminary Biological Evaluation of Novel Dihomooxacalix[4]arene-Based Anti-tumor Agents” (Frontiers in Chemistry, 2019)

How the values were obtained:
[1] = test system: MCF-7 cells; assay: Flow cytometry for cell apoptosis analysis (annexin V-FITC/PI); format: cell-based, human; details: 48 h, non-treated 14.50 ± 0.68%
Procedure: MCF-7 cells (5 × 10^5 cells/ml) were seeded in six-well plates and treated with compounds at different concentrations for 48 h. The cells were then harvested by trypsinization and washed twice with cold PBS. After centrifugation and removal of the supernatants, cells were resuspended in 400 μl of 1 × binding buffer, which was then added to 5 μl of annexin V-FITC and incubated at room temperature for 15 min. After adding 10 μl of PI, the cells were incubated at room temperature for another 15 min in the dark. The stained cells were analyzed by a flow cytometer (BD Accuri C6).

[2] = test system: HepG2 cells (human hepatocellular carcinoma cells); assay: SRB cytotoxicity assay, HepG2 cells; format: cell-based; details: 72 h, SRB; for IC50: read-out: IC50 (μM) HepG2
Procedure: (§1) A549 cells (human lung carcinoma cells), MCF-7 cells (human breast cancer cells), HeLa cells (human cervical cancer cells), HepG2 cells (human hepatocellular carcinoma cells), and HUVEC cells (human umbilical vein endothelial cells) were kindly provided by WeiFang Caleb Pharmaceuticals, Inc. A549 cells were cultured in Ham's F12K medium containing 10% fetal bovine serum, 2 mM L-glutamine, and 1.5 g/L sodium bicarbonate; MCF-7 cells were cultured on cell culture flask using RPMI 1640 medium with 2 mM L-glutamine adjusted to contain 1.5 g/L sodium bicarbonate, 4.5 g/L glucose, 10 mM HEPES, 1.0 mM sodium pyruvate, and 10% fetal bovine serum. Hela cells were cultured on Cell culture flask using 2 mM L-glutamine adjusted to contain 1.5 g/L sodium bicarbonate, 4.5 g/L glucose, 10 mM HEPES, and 1.0 mM sodium pyruvate in RPMI 1640 medium supplemented with 0.5 mg/ml G418 and 10% fetal bovine serum. HepG2 cells were cultured in minimum essential medium (Eagle) with 2 mM L-glutamine, Earle's BSS, 1.5 g/L sodium bicarbonate, 0.1 mM non-essential amino acids, 1.0 mM sodium pyruvate, and 10% fetal bovine serum. HUVEC cells were cultured in M199 medium containing 2 mM L-glutamine adjusted to contain 1.5 g/L sodium bicarbonate, 4.5 g/L glucose, 10 mM HEPES, 1.0 mM sodium pyruvate, ECGS, and 10% fetal bovine serum. All cells were cultured at 37°C in 5% CO2.
(§2) The cell proliferation of adherent cells was determined by sulforhodamine B assay (SRB) (Quan et al., [2009]; Li et al., [2017]). All cells were cultured in culture medium containing 10% fetal bovine serum and have been in the logarithmic growth phase. All cell types were seeded in a 96-well culture plate at a concentration of 1–5 × 10^4 cells per well at 37°C in a 5% CO2 incubator for 24 h. The cells were then exposed to seven drug concentrations of dihomooxacalix[4]arene derivatives for 72 h with each concentration located in three wells. Then, the cells were fixed with trichloroacetic acid (TCA). After washing, SRB working solution was added to the cells to […]. SRB combined with protein was dissolved in Tris base. OD values were measured for each well with a SPECTRA max 190 Cell microplate reader under 540 nm wavelength. According to the OD value, the cell growth inhibition rate was calculated.

[3] = test system: A549 cells (human lung carcinoma cells); assay: SRB cytotoxicity assay, A549 cells; format: cell-based; details: 72 h, SRB; for IC50: read-out: IC50 (μM) A549
Procedure: as §1, §2

[4] = test system: MCF-7 cells (human breast cancer cells); assay: SRB cytotoxicity assay, MCF-7 cells; format: cell-based; details: SRB; for inhibition at 10 µM: MCF7, 10 μM, 72 h; for IC50: MCF7, 72 h, read-out: IC50 (μM) MCF-7
Procedure: as §1, §2

[5] = test system: MCF-7 cells; assay: Flow cytometry for cell cycle analysis (PI); format: cell-based, human; details: 3 μM, 48 h; for percentage of cells in G0/G1 phase: non-treated 61.36 ± 3.65%
Procedure: For flow cytometric analysis of DNA content, MCF-7 cells in exponential growth were treated with compound for 48 h. The cells treated with compound were collected, washed twice with PBS, and then fixed with 75% alcohol overnight. Then, the cells were washed with PBS and resuspended in 100 μl of PBS, 200 mg/ml RNase was added for 30 min to eliminate the interference of RNA, and 20 ml/L propidium iodide (PI; Sigma) was added for 30 min. Then, the cells were washed, and the DNA content was detected by a flow cytometer (BD Accuri C6).

[6] = test system: HeLa cells (human cervical cancer cells); assay: SRB cytotoxicity assay, HeLa cells; format: cell-based; details: 72 h, SRB; for IC50: read-out: IC50 (μM) HeLa
Procedure: as §1, §2

[7] = test system: HUVEC cells (human umbilical vein endothelial cells); assay: SRB cytotoxicity assay, HUVEC normal cells; format: cell-based; details: Homo sapiens, HUVEC, 72 h, 10 μM, SRB; toxicity to normal cells
Procedure: as §1, §2

[8] = test system: A549, MCF-7, HeLa and HepG2 cells; assay: SRB cytotoxicity assay, four tumor cell types taken together; format: cell-based; details: Homo sapiens, 72 h, range over A549, MCF-7, HeLa, read-out: single concentration inhibition on the four tumor cells
Procedure: as §1, with “HepG2 cells were cultured in minimum essential medium (Eagle) with 2 mM L-glutamine, Earle's BSS, 1.5 g/L sodium bicarbonate, 0.1 mM non-essential amino acids, 1.0 mM sodium pyruvate, and 10% fetal bovine serum. HUVEC cells were cultured in M199 medium containing 2 mM L-glutamine adjusted to contain 1.5 g/L sodium bicarbonate, 4.5 g/L glucose, 10 mM HEPES, 1.0 mM sodium pyruvate, ECGS, and 10% fetal bovine serum. All cells were cultured at 37°C in 5% CO2.” left out
The cell proliferation of adherent cells was determined by sulforhodamine B assay (SRB) (Quan et al., [2009]; Li et al., [2017]). […] OD values were measured for each well with a SPECTRA max 190 Cell microplate reader under 540 nm wavelength. According to the OD value, the cell growth inhibition rate was calculated.

Compound | melting point [°C] | apoptotic rate ([1]; 3 μM) [%] | apoptotic rate ([1]; 10 μM) [%] | inhibition at 10 µM [2] [%] | IC50 [2] [µM] | inhibition at 10 µM [3] [%] | IC50 [3] [µM] | inhibition at 10 µM [4] [%] | IC50 [4] [µM] | percentage of cells in G0/G1 phase [5] [%] | inhibition at 10 µM [6] [%] | IC50 [6] [µM] | inhibition at 10 µM [7] [%] | apoptotic rate ([1]; 1 μM) [%] | percentage of cells in G2/M phase ([5]; non-treated 10.06 ± 0.91) [%] | percentage of cells in S phase ([5]; non-treated 24.69 ± 6.30%) [%] | inhibition at 10 µM [8] [%]
CC(C)(C)c1cc2c(O)c(c1)Cc1cc(C(C)(C)C)cc(c1OCC(=O)NCCCCCCN)Cc1cc(C(C)(C)C)cc(c1O)Cc1cc(C(C)(C)C)cc(c1OCC(=O)NCCCCCCN)COC2 [Compound 4D, 7,13,19,25-tetra-tert-butyl-28,30-di-hydroxy-27,29-di-(N-(6-aminohexyl)-aminocarbonylmethoxyl)-2,3-dihomo-3-oxa calix[4] arene] | 123.3 to 125.9 | 33.55 ± 0.78 | 61.15 ± 2.76 | 72 | 2.6 ± 0.2 | 99 | 0.7 ± 0.1 | 99 | 1.8 ± 0.7 | 73.56 ± 3.95 | 100 | 1.9 ± 0.1 | 90 |  |  |  | 
CC(C)(C)c1cc2c(O)c(c1)Cc1cc(C(C)(C)C)cc(c1OCC(=O)NCCO)Cc1cc(C(C)(C)C)cc(c1O)Cc1cc(C(C)(C)C)cc(c1OCC(=O)NCCO)COC2 [Compound 4A, 7,13,19,25-tetra-tert-butyl-28,30-di-hydroxy-27,29-di-(N-(2-hydroxyethyl)-aminocarbonylmethoxyl)-2,3-dihomo-3-oxacalix[4]arene] | 139.7 to 142.3 | 15.40 ± 0.13 | 40.74 ± 0.38 | 86 | 2.7 ± 0.4 | 100 | 2 ± 0.5 | 100 | 1 ± 0.1 | 71.39 ± 11.21 | 100 | 0.8 ± 0.2 | 41 | 19.63 ± 0.11 | 1.87 ± 2.45 | 20.68 ± 13.12 | 86 to 100
CC(C)(C)c1cc2c(O)c(c1)Cc1cc(C(C)(C)C)cc3c1OCC(=O)NCCNC(=O)COc1c(cc(C(C)(C)C)cc1Cc1cc(C(C)(C)C)cc(c1O)C3)COC2 [Compound 4E] | 204.8 to 206.3 |  |  | 21 |  | 60 | 12.4 ± 2.2 | 50 |  |  | 46 |  | 26 |  |  |  | 
CC(C)(C)c1cc2c(O)c(c1)Cc1cc(C(C)(C)C)cc3c1OCC(=O)NCCCNC(=O)COc1c(cc(C(C)(C)C)cc1Cc1cc(C(C)(C)C)cc(c1O)C3)COC2 [Compound 4F] | 189.5 to 191.4 |  |  | 9 |  | 63 | 2.9 ± 0.7 | 46 |  |  | 59 |  | 42 |  |  |  | 
CC(C)(C)c1cc2c(O)c(c1)Cc1cc(C(C)(C)C)cc3c1OCC(=O)NCCCCNC(=O)COc1c(cc(C(C)(C)C)cc1Cc1cc(C(C)(C)C)cc(c1O)C3)COC2 [Compound 4G] | 157.6 to 158.7 |  |  | 16 |  | 21 |  | 34 |  |  | 40 |  | 34 |  |  |  | 
CC(C)(C)c1cc2c(O)c(c1)Cc1cc(C(C)(C)C)cc(c1OCC(=O)NCCCCN)Cc1cc(C(C)(C)C)cc(c1O)Cc1cc(C(C)(C)C)cc(c1OCC(=O)NCCCCN)COC2 [Compound 4C, 7,13,19,25-tetra-tert-butyl-28,30-di-hydroxy-27,29-di-(N-(4-aminobutyl)-aminocarbonylmethoxyl)-2,3-dihomo-3-oxacalix[4] arene] | 129.4 to 131.2 |  |  | 64 | 5 ± 0.8 | 42 | 3.3 ± 0.7 | 78 | 5.4 ± 2.6 |  | 96 | 2.3 ± 0.1 | 55 |  |  |  | 
CC(C)(C)c1cc2c(O)c(c1)Cc1cc(C(C)(C)C)cc(c1OCC(=O)NC1CCCC1)Cc1cc(C(C)(C)C)cc(c1O)Cc1cc(C(C)(C)C)cc(c1OCC(=O)NC1CCCC1)COC2 [Compound 4M, 7,13,19,25-tetra-tert-butyl-28,30-di-hydroxy-27,29-di-(N-clopentyl-aminocarbonylmethoxyl)-2,3-dihomo-3-oxacalix[4]arene] | 145.9 to 148.2 |  |  | 12 |  | 66 | 10.1 ± 1.8 | 29 |  |  | 52 |  | 14 |  |  |  | 
COc1ccc(CCNC(=O)COc2c3cc(C(C)(C)C)cc2Cc2cc(C(C)(C)C)cc(c2O)Cc2cc(C(C)(C)C)cc(c2OCC(=O)NCCc2ccc(OC)c(OC)c2)Cc2cc(C(C)(C)C)cc(c2O)COC3)cc1OC [Compound 4P, 7,13,19,25-tetra-tert-butyl-28,30-di-hydroxy-27,29-di-(N-(3,4-dimethoxyphenethyl)-aminocarbonylmethoxyl)-2,3-dihomo-3-oxacalix [4]arene] | 117.4 to 120.1 |  |  | 11 |  | 22 |  | 0 |  |  | 37 |  | 0 |  |  |  | 
